Reference: ChEMBL document CHEMBL1137971, “Potent small molecule CCR1 antagonists” (Bioorg Med Chem Lett, 2004)

How the values were obtained:
THP-1 [1] = experiment: Inhibition of CCL3 induced chemotaxis in THP-1 cells; format: functional, cell-based; settings: Homo sapiens
[2] = molecular target: T1, C-C chemokine receptor type 1 (Homo sapiens, UniProt P32246); experiment: Inhibition of CCL3 binding to C-C chemokine receptor type 1
T1 sequence (P32246 whole entry): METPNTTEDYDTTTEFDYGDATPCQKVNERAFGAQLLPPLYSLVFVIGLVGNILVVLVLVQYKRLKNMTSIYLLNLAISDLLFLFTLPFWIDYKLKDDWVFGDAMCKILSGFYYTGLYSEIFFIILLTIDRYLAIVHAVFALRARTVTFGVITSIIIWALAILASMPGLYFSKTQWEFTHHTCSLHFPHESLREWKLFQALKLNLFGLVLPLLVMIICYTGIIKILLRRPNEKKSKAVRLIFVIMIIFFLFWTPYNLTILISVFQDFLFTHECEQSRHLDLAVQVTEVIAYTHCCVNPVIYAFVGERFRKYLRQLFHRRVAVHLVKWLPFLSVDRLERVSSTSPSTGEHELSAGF

THP-1 [3] = experiment: Inhibition of CCL3 induced chemotaxis in THP-1 cells; Not active; format: functional, cell-based, Homo sapiens
Homo sapiens = species: Homo sapiens; experiment: Compound inhibits CCL3 induced CD11b up-regulation on monocytes in human whole blood; format: functional, organism-based

| IC50 (THP-1 [1]) [nM] | IC50 [2] [nM] | IC50 (THP-1 [3]) | IC50 (Homo sapiens) [µM] | Compound |
| --- | --- | --- | --- | --- |
| > 25000 | > 32000 | – | – | CNC(=O)[C@H](CC(C)C)C[C@H](O)[C@H](Cc1ccccc1)NC(=O)c1cnccn1 |
| 4600 | 44800 | – | – | CC1(C)CC([C@H](C[C@H](O)[C@H](Cc2ccccc2)NC(=O)c2cnc3ccccc3n2)C(N)=O)CC(C)(C)C1 |
| 2400 | 580 | – | – | CNC(=O)[C@H](CC(C)C)C[C@H](O)[C@H](Cc1ccccc1)NC(=O)c1nccc2ccccc12 |
| 4300 | 18500 | – | – | CNC(=O)[C@H](CC(C)C)C[C@H](O)[C@H](Cc1ccccc1)NC(=O)c1ccnc2ccccc12 |
| 2 | 28 | – | – | CC(C)CC[C@H](C[C@H](O)[C@H](Cc1ccccc1)NC(=O)c1cnc2ccccc2n1)C(N)=O |
| 8 | 22 | – | – | CNC(=O)[C@H](CCC(C)C)C[C@H](O)[C@H](Cc1ccccc1)NC(=O)c1cnc2ccccc2n1 |
| > 25000 | 16700 | – | – | CNC(=O)[C@H](CC(C)C)C[C@H](O)[C@H](Cc1ccccc1)NC(=O)c1cc2ccccc2nc1O |
| > 25000 | 10300 | – | – | CNC(=O)[C@H](CC(C)C)C[C@H](O)[C@H](Cc1ccccc1)NC(=O)c1ccc2ccccc2c1 |
| 12 | 48 | – | – | NC(=O)[C@H](CC1CCCC1)C[C@H](O)[C@H](Cc1ccccc1)NC(=O)c1cnc2ccccc2n1 |
| 3000 | 2600 | – | – | CNC(=O)[C@H](CC(C)C)C[C@H](O)[C@H](Cc1ccc(F)cc1)NC(=O)c1cnc2ccccc2n1 |
| 1300 | 610 | – | – | CNC(=O)[C@H](CC(C)C)C[C@H](O)[C@H](Cc1ccc(O)cc1)NC(=O)c1cnc2ccccc2n1 |
| 1100 | 2570 | – | – | CNC(=O)[C@H](CC(C)C)C[C@H](O)[C@H](Cc1ccccc1)NC(=O)c1cnnc2ccccc12 |
| > 25000 | 55100 | – | – | CN(C)CC[C@H](C[C@H](O)[C@H](Cc1ccccc1)NC(=O)c1cnc2ccccc2n1)C(N)=O |
| – | 4200 | Not Active | – | CC[C@H](C)[C@H](NC(=O)c1cnc2ccccc2n1)[C@@H](O)C[C@@H](CC(C)C)C(=O)NC |
| – | 510 | Not Active | – | CNC(=O)[C@H](CC(C)C)C[C@H](O)[C@H](Cc1ccccc1)NC(=O)c1cncc(Br)c1 |
| 2000 | 2900 | – | – | CNC(=O)[C@H](CC(C)C)C[C@H](O)[C@H](Cc1ccc(OC)cc1)NC(=O)c1cnc2ccccc2n1 |
| 3300 | 2490 | – | – | CNC(=O)[C@H](CC(C)C)C[C@H](O)[C@H](Cc1ccccc1)NC(=O)c1ccc2ncccc2c1 |

| IC50 (THP-1 [1]) [nM] | IC50 [2] [nM] | IC50 (THP-1 [3]) | IC50 (Homo sapiens) [µM] | Compound |
| --- | --- | --- | --- | --- |
| 12500 | 3500 | – | – | NC(=O)[C@@H](C[C@H](O)[C@H](Cc1ccccc1)NC(=O)c1cnc2ccccc2n1)C1CCOCC1 |
| 120 | 280 | – | – | NC(=O)[C@H](Cc1ccccc1)C[C@H](O)[C@H](Cc1ccccc1)NC(=O)c1cnc2ccccc2n1 |
| 64 | 64 | – | – | CNC(=O)[C@H](CC(C)C)C[C@H](O)[C@H](Cc1ccccc1)NC(=O)c1cnc2ccccc2n1 |
| 840 | – | – | ~5 | CNC(=O)[C@H](CC(C)C)C[C@H](O)[C@H](CC1CCCCC1)NC(=O)c1cnc2ccccc2c1 |
| > 25000 | > 32000 | – | – | CNC(=O)[C@H](CC(C)C)C[C@H](O)[C@H](Cc1ccccc1)NC(=O)c1cccc2cccnc12 |
| 28 | 26 | – | – | NC(=O)[C@@H](C[C@H](O)[C@H](Cc1ccccc1)NC(=O)c1cnc2ccccc2n1)C1CCCC1 |
| 6600 | 5150 | – | – | CNC(=O)[C@H](CC(C)C)C[C@H](O)[C@H](Cc1ccccc1)NC(=O)c1cncc2ccccc12 |
| 5 | 8 | – | – | NC(=O)[C@@H](C[C@H](O)[C@H](Cc1ccccc1)NC(=O)c1cnc2ccccc2n1)C1CCCCC1 |
| 460 | – | – | – | CNC(=O)[C@H](CC(C)C)C[C@H](O)[C@H](Cc1ccccc1)NC(=O)c1cnc2ccccc2c1 |
| > 25000 | > 32000 | – | – | CNC(=O)[C@H](CC(C)C)C[C@H](O)[C@H](Cc1ccccc1)NC(=O)c1cccnc1 |
| 5 | 15 | – | – | CC1CC([C@H](C[C@H](O)[C@H](Cc2ccccc2)NC(=O)c2cnc3ccccc3n2)C(N)=O)CC(C)O1 (stereo not given in full) |
| > 25000 | 4600 | – | – | NC(=O)[C@H](CCO)C[C@H](O)[C@H](Cc1ccccc1)NC(=O)c1cnc2ccccc2n1 |
| 69 | 420 | – | – | CC(C)CCC[C@H](C[C@H](O)[C@H](Cc1ccccc1)NC(=O)c1cnc2ccccc2n1)C(N)=O |
| 890 | 130 | – | – | CNC(=O)[C@H](CC(C)C)C[C@H](O)[C@H](Cc1ccccc1)NC(=O)c1ccc2ccccc2n1 |
| 150 | 160 | – | – | CNC(=O)[C@H](CC(C)C)C[C@H](O)[C@H](Cc1ccc(Cl)c(Cl)c1)NC(=O)c1cnc2ccccc2n1 |
| 560 | 670 | – | – | CNC(=O)[C@H](CC(C)C)C[C@H](O)[C@H](CC1CCCCC1)NC(=O)c1cnc2ccccc2n1 |
